{"source": "patent US7138231B2", "about": "(priority 2000, dated 2006)", "key": {"[1]": {"test_system": "HIV-1 variants with protease substitutions", "settings": "both substitutions G48V-L90M; cited from earlier work"}, "[2]": {"test_system": "HIV-1 patient viruses with protease L90M", "test": "Phenotypic susceptibility profiles of 58 patient virus samples with L90M, no other primary mutations", "format": "cell-based", "settings": "for % w with SQV FC > 2.5: L90M; for % FC > 2.5: SQV"}, "[3]": {"test_system": "HIV-1 patient viruses with protease L90M", "test": "Phenotypic susceptibility profiles of 333 patient virus samples with L90M (not 30 or 50)", "format": "cell-based", "settings": "for % with SQV FC > 2.5 / wt % > 2.5 / wt % > 10: L90M"}, "[4]": {"test_system": "HIV-1 patient-derived protease and reverse transcriptase segments (N88S in PR) in resistance test vectors", "test": "Phenotypic drug susceptibility test with resistance test vectors from patient samples", "format": "cell-based", "settings": "patient sample RTV-627"}, "[5]": {"test_system": "HIV-1 protease site-directed mutants (N88S, L63P, V77I, M46L) in resistance test vector", "test": "Phenotypic susceptibility assay of resistance test vectors with site-directed mutations in PR", "from_the_text": "The resistance test vectors containing a functional luciferase gene cassette were constructed and host cells were transfected with the resistance test vector DNA. […] The resistance test vector viral particles produced by transfecting the resistance test vector DNA into host cells, either in the presence or absence of protease inhibitors, were used to infect target host cells grown either in the absence of NRTI or NNRTI or in the presence of increasing concentrations of the drug. Luciferase activity in infected target host cells in the presence of drug was compared to the luciferase activity in infected target host cells in the absence of drug. […] The IC50 values were determined by plotting percent drug inhibition vs. log10 drug concentration.\nHost cells were seeded in 10-cm-diameter dishes and were transfected one day after plating with resistance test vector plasmid DNA and the envelope expression vector. Transfections were performed using a calcium-phosphate co-precipitation procedure. The cell culture media containing the DNA precipitate was replaced with fresh medium, from one to 24 hours, after transfection. Cell culture media containing resistance test vector viral particles was harvested one to four days after transfection and was passed through a 0.45-mm filter before being stored at −80° C. HIV capsid protein (p24) levels in the harvested cell culture media were determined by an EIA method as described by the manufacturer (SIAC; Frederick, Md.). Before infection, target cells (293 and 293/T) were plated in cell culture media. Control infections were performed using cell culture media from mock transfections (no DNA) or transfections containing the resistance test vector plasmid DNA without the envelope expression plasmid. One to three or more days after infection the media was removed and cell lysis buffer (Promega) was added to each well. Cell lysates were assayed for luciferase activity. The inhibitory effect of the drug was determined using the following equation: % luciferase inhibition=[1−(RLUluc[drug]RLUluc)]×100 where RLUluc [drug] is the relative light unit of luciferase activity in infected cells in the presence of drug and RLUluc is the Relative Light Unit of luciferase activity in infected cells in the absence of drug. IC50 values were obtained from the sigmoidal curves that were generated from the data by plotting the percent inhibition of luciferase activity vs. the log10 drug concentration.\nMutations are introduced into the resistance test vector through any of the widely known methods for site-directed mutagenesis. […] A resistance test vector containing the specific mutation or group of mutations are then tested using the phenotypic susceptibility assay described above and the susceptibility profile is compared to that of a genetically defined wild-type (drug susceptible) resistance test vector which lacks the specific mutations.\nResistance test vectors were constructed containing the N88S mutation alone and in combination with other substitutions in PR (L63P, V77I and M46L) known to modulate the HIV susceptibility to PRIs. Mutations were introduced into the resistance test vector using the mega-primer PCR method for site-directed mutagenesis."}, "[6]": {"test_system": "HIV-1", "settings": "cited from earlier work"}}}
{"compound": "CC(C)(C)NC(=O)[C@@H]1C[C@@H]2CCCC[C@@H]2CN1C[C@@H](O)[C@H](Cc1ccccc1)NC(=O)[C@H](CC(N)=O)NC(=O)c1ccc2ccccc2n1", "note": "[saquinavir]", "values": [{"measurement": "loss of susceptibility", "setting": "[1]", "value": "> 100", "unit": "fold"}, {"measurement": "% w with SQV FC > 2.5", "setting": "[2]; number of secondary mutations 0", "value": 53, "unit": "%"}, {"measurement": "% w with SQV FC > 2.5", "setting": "[2]; number of secondary mutations 1", "value": 47, "unit": "%"}, {"measurement": "% w with SQV FC > 2.5", "setting": "[2]; number of secondary mutations 2", "value": 43, "unit": "%"}, {"measurement": "% w with SQV FC > 2.5", "setting": "[2]; number of secondary mutations 3", "value": 68, "unit": "%"}, {"measurement": "% w with SQV FC > 2.5", "setting": "[2]; number of secondary mutations 4", "value": 77, "unit": "%"}, {"measurement": "% w with SQV FC > 2.5", "setting": "[2]; number of secondary mutations 5", "value": 100, "unit": "%"}, {"measurement": "% w with SQV FC > 2.5", "setting": "[2]; number of secondary mutations 6", "value": 100, "unit": "%"}, {"measurement": "% FC > 2.5", "setting": "[2]; L90M + mutation at position 10", "value": 65, "unit": "%"}, {"measurement": "% FC > 2.5", "setting": "[2]; L90M + mutation at position 71", "value": 78, "unit": "%"}, {"measurement": "% FC > 2.5", "setting": "[2]; L90M + mutation at position 71, listed as SQV", "value": 78, "unit": "%"}, {"measurement": "% FC > 2.5", "setting": "[2]; L90M + mutation at position 73", "value": 79, "unit": "%"}, {"measurement": "% FC > 2.5", "setting": "[2]; L90M + mutation at position 73, listed as SQV", "value": 79, "unit": "%"}, {"measurement": "% FC > 2.5", "setting": "[2]; L90M + mutation at position 77", "value": 76, "unit": "%"}, {"measurement": "% FC > 2.5", "setting": "[2]; listed as 90: all viruses with L90M", "value": 55, "unit": "%"}, {"measurement": "% with SQV FC > 2.5", "setting": "[3]; number of secondary mutations (weighted count) 0", "value": 23.5, "unit": "%"}, {"measurement": "% with SQV FC > 2.5", "setting": "[3]; number of secondary mutations (weighted count) 1", "value": 25.0, "unit": "%"}, {"measurement": "% with SQV FC > 2.5", "setting": "[3]; number of secondary mutations (weighted count) 2", "value": 69.4, "unit": "%"}, {"measurement": "% with SQV FC > 2.5", "setting": "[3]; number of secondary mutations (weighted count) 3", "value": 85.7, "unit": "%"}, {"measurement": "% with SQV FC > 2.5", "setting": "[3]; number of secondary mutations (weighted count) 4", "value": 97.3, "unit": "%"}, {"measurement": "% with SQV FC > 2.5", "setting": "[3]; number of secondary mutations (weighted count) 5", "value": 100, "unit": "%"}, {"measurement": "% with SQV FC > 2.5", "setting": "[3]; number of secondary mutations (weighted count) 6 or more", "value": 100, "unit": "%"}, {"measurement": "wt % > 2.5", "setting": "[3]; Saquinavir FC>2.5, position 10 wild type", "value": 56.4, "unit": "%"}, {"measurement": "wt % > 2.5", "setting": "[3]; Saquinavir FC>2.5, position 20 wild type", "value": 73.9, "unit": "%"}, {"measurement": "wt % > 2.5", "setting": "[3]; Saquinavir FC>2.5, position 33 wild type", "value": 77.4, "unit": "%"}, {"measurement": "wt % > 2.5", "setting": "[3]; Saquinavir FC>2.5, position 36 wild type", "value": 74.9, "unit": "%"}, {"measurement": "wt % > 2.5", "setting": "[3]; Saquinavir FC>2.5, position 37 wild type", "value": 76.4, "unit": "%"}, {"measurement": "wt % > 2.5", "setting": "[3]; Saquinavir FC>2.5, position 48 wild type", "value": 78.1, "unit": "%"}, {"measurement": "wt % > 2.5", "setting": "[3]; Saquinavir FC>2.5, position 53 wild type", "value": 77.3, "unit": "%"}, {"measurement": "wt % > 2.5", "setting": "[3]; Saquinavir FC>2.5, position 54 wild type", "value": 68.1, "unit": "%"}, {"measurement": "wt % > 2.5", "setting": "[3]; Saquinavir FC>2.5, position 63 wild type", "value": 37.5, "unit": "%"}, {"measurement": "wt % > 2.5", "setting": "[3]; Saquinavir FC>2.5, position 64 wild type", "value": 83.1, "unit": "%"}, {"measurement": "wt % > 2.5", "setting": "[3]; Saquinavir FC>2.5, position 66 wild type", "value": 78.4, "unit": "%"}, {"measurement": "wt % > 2.5", "setting": "[3]; Saquinavir FC>2.5, position 71 wild type", "value": 58.0, "unit": "%"}, {"measurement": "wt % > 2.5", "setting": "[3]; Saquinavir FC>2.5, position 73 wild type", "value": 73.6, "unit": "%"}, {"measurement": "wt % > 2.5", "setting": "[3]; Saquinavir FC>2.5, position 84 wild type", "value": 70.7, "unit": "%"}, {"measurement": "wt % > 2.5", "setting": "[3]; Saquinavir FC>2.5, position 93 wild type", "value": 85.6, "unit": "%"}, {"measurement": "mt % > 2.5", "setting": "[3]; Saquinavir FC>2.5, listed as 90: all samples with L90M", "value": 79.3, "unit": "%"}, {"measurement": "wt % > 10", "setting": "[3]; Saquinavir FC>10, position 10 wild type", "value": 20.5, "unit": "%"}, {"measurement": "wt % > 10", "setting": "[3]; Saquinavir FC>10, position 20 wild type", "value": 33.9, "unit": "%"}, {"measurement": "wt % > 10", "setting": "[3]; Saquinavir FC>10, position 23 wild type", "value": 42.4, "unit": "%"}, {"measurement": "wt % > 10", "setting": "[3]; Saquinavir FC>10, position 35 wild type", "value": 38.8, "unit": "%"}, {"measurement": "wt % > 10", "setting": "[3]; Saquinavir FC>10, position 36 wild type", "value": 34.2, "unit": "%"}, {"measurement": "wt % > 10", "setting": "[3]; Saquinavir FC>10, position 48 wild type", "value": 40.8, "unit": "%"}, {"measurement": "wt % > 10", "setting": "[3]; Saquinavir FC>10, position 53 wild type", "value": 39.8, "unit": "%"}, {"measurement": "wt % > 10", "setting": "[3]; Saquinavir FC>10, position 54 wild type", "value": 32.8, "unit": "%"}, {"measurement": "wt % > 10", "setting": "[3]; Saquinavir FC>10, position 58 wild type", "value": 41.6, "unit": "%"}, {"measurement": "wt % > 10", "setting": "[3]; Saquinavir FC>10, position 62 wild type", "value": 38.5, "unit": "%"}, {"measurement": "wt % > 10", "setting": "[3]; Saquinavir FC>10, position 64 wild type", "value": 46.1, "unit": "%"}, {"measurement": "wt % > 10", "setting": "[3]; Saquinavir FC>10, position 71 wild type", "value": 29.0, "unit": "%"}, {"measurement": "wt % > 10", "setting": "[3]; Saquinavir FC>10, position 73 wild type", "value": 39.4, "unit": "%"}, {"measurement": "wt % > 10", "setting": "[3]; Saquinavir FC>10, position 77 wild type", "value": 49.5, "unit": "%"}, {"measurement": "wt % > 10", "setting": "[3]; Saquinavir FC>10, position 84 wild type", "value": 24.9, "unit": "%"}, {"measurement": "wt % > 10", "setting": "[3]; Saquinavir FC>10, position 93 wild type", "value": 50.7, "unit": "%"}, {"measurement": "mt % > 10", "setting": "[3]; Saquinavir FC>10, listed as 90: all samples with L90M", "value": 43.5, "unit": "%"}, {"measurement": "change in susceptibility", "setting": "[4]", "value": "increase"}, {"measurement": "Fold Change vs. reference", "setting": "[5]; site-directed mutation N88S", "value": 0.47, "unit": "fold"}, {"measurement": "Fold Change vs. reference", "setting": "[5]; site-directed mutations L63P", "value": 1.04, "unit": "fold"}, {"measurement": "Fold Change vs. reference", "setting": "[5]; site-directed mutations L63P, N88S", "value": 1.44, "unit": "fold"}, {"measurement": "Fold Change vs. reference", "setting": "[5]; site-directed mutations M46L, L63P, V77I, N88S", "value": 1.45, "unit": "fold"}, {"measurement": "patients in whom resistant variants emerge", "setting": "[6]; after 1 year of monotherapy with 1,800 mg daily", "value": "approximately 45%"}, {"measurement": "frequency of resistance", "setting": "[6]; combination therapy with zidovudine, zalcitabine, and saquinavir", "value": 22, "unit": "%"}]}
